# Measurements taken from patent US20260152501A1, “CYCLIN MODULATOR” (EUBULUS BIOTHERAPEUTICS (HONG KONG) LIMITED, priority 2022, published 2026).
# pIC50: −log10 of the molar value.
# What was measured:
# HepG2 cells = assay: Antiproliferative effect on HepG2 cells; type: cell-based; details: Homo sapiens
# Description: Reagents: RPMI-1640 medium, McCoy's 5A medium, IMDM medium, MEM medium, L-15 medium, fetal bovine serum, Penicillin-Streptomycin double antibody, trypsin, etc., 2-mercaptoethanol, NEAA, pyruvate, etc.
# The test cells were cultured in conventional ways, and the cells should be passed for at least 2 generations before plating.
# All cells were subjected to IC50 test for corresponding samples.
# The fluorescence intensity of each well was detected using the Alarm blue method, and EC50 was calculated.
# IC50 was calculated according to the following formula:
# [formula] • wherein, Min, Max and Slope represent the minimum, maximum and slope respectively.
# Cyclin K = assay: Immunohistochemistry (IHC) staining of Cyclin K in HepG2 cells; type: cell-based; details: incubated with compound 2 hours, CCNK antibody
# Description: Appropriate amount of compounds were added to the cultured cells. The cells were incubated in a tissue culture incubator at 37° C. for 2 hours.
# After washing the cultured cells twice with PBS, 100 μL 10% neutral buffered formalin were added and the cells were fixed for 20 minutes.
# After washing 3 times with PBS, immunohistochemical staining was performed using CCNK antibody and general two-step detection kit (mouse/rabbit enhanced polymer detection system, PV-9000, Zsbio Inc, Beijing).
# Specifically, 100 μL of endogenous peroxidase blocker in the kit was added, cells were incubated at room temperature for 10 minutes; rinsed with PBS buffer for 3 minutes×3 times.
# 100 μL CCNK antibody 1:5000 dilution was added, and the cells were incubated at 37° C. for 60 minutes; rinsed with PBS buffer for 3 minutes×3 times.
# 100 μL reaction enhancer was added, and the cells were incubated at 37° C. for 20 minutes; rinsed with PBS buffer for 3 minutes×3 times.
# 100 μL enhanced enzyme-labeled goat anti-mouse/rabbit IgG polymer was added, and the cells were incubated at 37° C. for 20 minutes; rinsed with PBS buffer for 3 minutes×3 times.
# The cells were placed in 75% ethanol, soaked for 3 minutes×2 times; placed in 95% ethanol, soaked for 3 minutes×2 times; after removing excess liquid, placed in anhydrous ethanol, soaked for 3 minutes×3 times; after removing excess liquid, air dried, observed under a microscope and taken pictures after sealing.
Compound,pIC50 (HepG2 cells),Cyclin K IHC data of HepG2 cells (Cyclin K)
"CC(C)n1cnc2c(NCc3ccc(-c4ccccc4)cc3)nc(N3CCN[C@H](CCO)C3)nc21 [UB-031, (R)-2-(4-(6-(([1,1′-biphenyl]-4-ylmethyl)amino)-9-isopropyl-9H-purin-2-yl)piperazin-2-yl) ethan-1-ol]",,B (31 nM < B <= 93 nM)
"CC(C)n1cnc2c(NCc3ccc(-c4ccccc4)cc3)nc(NC3CCNCC3)nc21 [UB-016, N6-([1,1′-biphenyl]-4-yl-methyl)-9-isopropyl-N2-(Piperidin-4-yl)-9H-purin-2,6-diamine]",,C (93 nM < C <= 278 nM)
"Fc1cccc(-n2cnc3c(NCc4ccc(-c5ccccc5)cc4)nc(N4CCNCC4)nc32)c1 [UB-054, N-([1,1′-biphenyl]-4-ylmethyl)-9-(3-fluorophenyl)-2-(piperazin-1-yl)-9H-purin-6-amine]",,D (D > 278 nM)
"CC(C)n1cnc2c(NCc3ccc(-c4ccccc4)cc3)nc(N3CCNC[C@H]3CO)nc21 [UB-022, (S)-(1-(6-(([1,1′-biphenyl]-4-ylmethyl)amino)-9-isopropyl-9H-purin-2-yl)piperazin-2-yl) methanol]",> 7.30,A (A <= 31 nM)
"CC(C)n1cnc2c(NCc3ccc(-c4ccccc4)cc3)nc(N3CCN[C@H](CO)C3)nc21 [UB-029, (S)-(4-(6-(([1,1′-biphenyl]-4-ylmethyl)amino)-9-isopropyl-9H-purin-2-yl)piperazin-2-yl) methanol]",,B (31 nM < B <= 93 nM)
"CC(C)n1cnc2c(NCc3ccc(-c4ccccc4)cc3)nc(N3CCNC[C@@H]3C)nc21 [UB-021, (S)-N-([1,1′-biphenyl]-4-ylmethyl)-9-isopropyl-2-(2-methylpiperazin-1-yl)-9H-purin-6-amine]",7.00 to 7.30,C (93 nM < C <= 278 nM)
"CC(C)n1cnc2c(NCc3ccc(-c4ccccc4)cc3)nc(N3CCNC[C@@H]3CO)nc21 [UB-023, (R)-(1-(6-(([1,1′-biphenyl]-4-ylmethyl)amino)-9-isopropyl-9H-purin-2-yl)piperazin-2-yl) methanol]",7.00 to 7.30,C (93 nM < C <= 278 nM)
"CC(C)n1cnc2c(NCc3ccc(-c4ccccc4)cc3)nc(N3CCNC[C@@H]3CCO)nc21 [UB-025, (S)-2-(1-(6-(([1,1′-biphenyl]-4-ylmethyl)amino)-9-isopropyl-9H-purin-2-yl)piperazin-2-yl) ethan-1-ol]",,A (A <= 31 nM)
"CC(C)n1cnc2c(NCc3ccc(-c4ccccc4)cc3)nc(N3CCNC[C@H]3C)nc21 [UB-020, (R)-N-([1,1′-biphenyl]-4-ylmethyl)-9-isopropyl-2-(2-methylpiperazin-1-yl)-9H-purin-6-amine]",> 7.30,B (31 nM < B <= 93 nM)
"CC(C)n1cnc2c(NCc3ccc(-c4ccccc4)cc3)nc(N3CCNC4(CC4)C3)nc21 [UB-059, N-([1,1′-biphenyl]-4-ylmethyl)-9-isopropyl-2-(4,7-diazaspiro[2.5]octan-7-yl)-9H-purin-6-amine]",,B (31 nM < B <= 93 nM)
"CC(C)n1cnc2c(NCc3ccc(-c4ccccc4)cc3)nc(N3CCN[C@@H](CO)C3)nc21 [UB-028, (R)-(4-(6-(([1,1′-biphenyl]-4-ylmethyl)amino)-9-isopropyl-9H-purin-2-yl)piperazin-2-yl) methanol]",,A (A <= 31 nM)
"CC(C)n1cnc2c(NCc3ccc(-c4ccccc4)cc3)nc(N3C[C@@H](C)N[C@H](C)C3)nc21 [UB-032, N-([1,1′-biphenyl]-4-ylmethyl)-2-((3R,5R)-3,5-dimethylpiperazin-1-yl)-9-isopropyl-9H-purin-6-amine]",,D (D > 278 nM)
"CC(C)n1cnc2c(NCc3ccc(-c4ccccc4)cc3)nc(N3CCN[C@@H](CCO)C3)nc21 [UB-030, (S)-2-(4-(6-(([1,1′-biphenyl]-4-ylmethyl)amino)-9-isopropyl-9H-purin-2-yl)piperazin-2-yl) ethan-1-ol]",,B (31 nM < B <= 93 nM)
"CC(C)n1cnc2c(NCc3ccc(-c4ccccc4)cc3)nc(N3CCNC[C@H]3CCO)nc21 [UB-024, (R)-2-(1-(6-(([1,1′-biphenyl]-4-ylmethyl)amino)-9-isopropyl-9H-purin-2-yl)piperazin-2-yl) ethan-1-ol]",,A (A <= 31 nM)
"CC(C)n1cnc2c(NCc3ccc(-c4ccccc4)cc3)nc(N3C[C@@H](C)N[C@@H](C)C3)nc21 [UB-060, N-([1,1′-biphenyl]-4-ylmethyl)-2-((3R,5S)-3,5-dimethylpiperazin-1-yl)-9-isopropyl-9H-purin-6-amine]",,A (A <= 31 nM)

# Second part, led by results:
pIC50 (HepG2 cells),Compound,Cyclin K IHC data of HepG2 cells (Cyclin K)
> 7.30,"CC(C)n1cnc2c(NCc3ccc(-c4ccccc4)cc3)nc(N[C@H]3CCNC3)nc21 [UB-037, (S)-N6-([1,1′-biphenyl]-4-ylmethyl)-9-isopropyl-N2-(pyrrolidin-3-yl)-9H-purin-2,6-diamine]",C (93 nM < C <= 278 nM)
7.00 to 7.30,"CC(C)n1cnc2c(NCc3ccc(-c4ccccc4)cc3)nc(OC[C@@H]3CNCCN3)nc21 [UB-033, (S)-N-([1,l′-biphenyl]-4-ylmethyl)-9-isopropyl-2-(piperazin-2-ylmethoxy)-9H-purin-6-amine]",C (93 nM < C <= 278 nM)
7.00 to 7.30,"CC(C)n1cnc2c(NCc3ccc(-c4ccccc4OCCO)cc3)nc(N3CCNCC3)nc21 [UB-047, 2-((4′-(((9-isopropyl-2-(piperazin-1-yl)-9H-purin-6-yl)amino)methyl)-[1,1′-biphenyl]-2-yl)oxy)ethan-1-ol]",D (D > 278 nM)
< 6.52,"CC(C)n1cnc2c(NCc3ccc(-c4ccccc4)c(OCCCCO)c3)nc(N3CCNCC3)nc21 [UB-045, 4-((4-(((9-isopropyl-2-(piperazin-1-yl)-9H-purin-6-yl)amino)methyl)-[1,1′-biphenyl]-2-yl)oxy)butan-1-ol]",D (D > 278 nM)
< 6.52,"CCCOc1cc(CNc2nc(N3CCNCC3)nc3c2ncn3C(C)C)ccc1-c1ccccc1 [UB-044, 9-isopropyl-2-(piperazin-1-yl)-N-((2-propoxy-[1,1′-biphenyl]-4-yl)methyl)-9H-purin-6-amine]",D (D > 278 nM)
6.52 to 7.00,"CCCOc1ccccc1-c1ccc(CNc2nc(N3CCNCC3)nc3c2ncn3C(C)C)cc1 [UB-049, 9-isopropyl-2-(piperazin-1-yl)-N-((2′-propoxy-[1,1′-biphenyl]-4-yl)methyl)-9H-purin-6-amine]",D (D > 278 nM)
6.52 to 7.00,"CC(C)n1cnc2c(NCc3ccc(-c4ccccc4O)cc3)nc(N3CCNCC3)nc21 [UB-046, 4′-(((9-isopropyl-2-(piperazin-1-yl)-9H-purin-6-yl)amino)methyl)-[1,1′-biphenyl]-2-ol]",D (D > 278 nM)
< 6.52,"Cn1cc(-n2cnc3c(NCc4ccc(-c5ccccc5)cc4)nc(N4CCNCC4)nc32)cn1 [UB-055, N-([1,1′-biphenyl]-4-ylmethyl)-9-(1-methyl-1H-pyrazol-4-yl)-2-(piperazin-1-yl)-9H-purin-6-amine]",D (D > 278 nM)
> 7.30,"CC(C)n1cnc2c(NCc3ccc(-c4ccccc4)cc3)nc(N3CCN[C@H](C)C3)nc21 [UB-027, (R)-N-([1,1′-biphenyl]-4-ylmethyl)-9-isopropyl-2-(3-methylpiperazin-1-yl)-9H-purin-6-amine]",A (A <= 31 nM)
6.52 to 7.00,"CC(C)n1cnc2c(NCc3ccc(-c4ccccc4)c(OCCCC#N)c3)nc(N3CCNCC3)nc21 [UB-063, 4-((4-(((9-isopropyl-2-(piperazin-1-yl)-9H-purin-6-yl)amino)methyl)-[1,1′-biphenyl]-2-yl)oxy)butyronitrile]",D (D > 278 nM)
> 7.30,"CC(C)n1cnc2c(NCc3ccc(-c4ccccc4)cc3)nc(N[C@@H]3CCNC3)nc21 [UB-038, (R)-N6-([1,1′-biphenyl]-4-ylmethyl)-9-isopropyl-N2-(pyrrolidin-3-yl)-9H-purin-2,6-diamine]",C (93 nM < C <= 278 nM)
> 7.30,"CC(C)n1cnc2c(NCc3ccc(-c4ccccc4)cc3)nc(N[C@H]3CC[C@H](N)C3)nc21 [UB-040, N6-([1,1′-biphenyl]-4-yl-methyl)-N2-((1S,3S)-3-aminocyclopentyl)-9-isopropyl-9H-purin-2,6-diamine]",B (31 nM < B <= 93 nM)
6.52 to 7.00,"CC(C)n1cnc2c(NCc3ccc(-c4ccccc4OCCCCO)cc3)nc(N3CCNCC3)nc21 [UB-050, 4-((4′-(((9-isopropyl-2-(piperazin-1-yl)-9H-purin-6-yl)amino)methyl)-[1,1′-biphenyl]-2-yl)oxy)butan-1-ol]",D (D > 278 nM)
